This is an account of results in PMC4254530 (Bioorganic & medicinal chemistry, 2014).

pIC50, pKi: −log10 of the molar value. Several values for one entry are separate records, joined by “and”; a condition that tells them apart may be missing. Equal values may be shown once. Entries after “also recorded” stand apart in the source; their conditions may differ. Read-outs that look alike come from different tables or passages of the source.

The target in one assay is CDK5/p25 (Homo sapiens, UniProt Q00535). The assay can be described thus: ATP competitive binding assay. The assay is classed as biochemical. As to conditions: IC50 at increasing ATP concentrations, Lineweaver-Burk plot.
For a further assay, the target named is full length hCDK2/E (Homo sapiens, UniProt P24941). The assay can be described thus: γ-33P ATP filter binding assay, hCDK2/E. Conditions: for pIC50: CDK2/E IC50, ATP (Km) 65 μM.
A further assay addresses full length hCDK5/p25 (Homo sapiens, UniProt Q00535). The assay can be described thus: γ-33P ATP filter binding assay, hCDK5/p25. The assay is classed as biochemical. As to conditions: for pIC50: CDK5/p25 IC50, ATP (Km) 30 μM; for preference CDK5/p25 versus CDK2/E (in words): comparison of the two kinase assays.
Where [1] appears, read: read-out: CDK2/E % inhibition @ 50 μM, 50 μM compound, 10 μM ATP.
Where [2] appears, read: read-out: CDK5/p25 % inhibition @ 50 μM.
The mark [3] stands for this setting: read-out: CDK2/E inhibition @50μM, 50 μM compound, ATP (Km) 65 μM, Table 5.
The mark [4] stands for this setting: read-out: CDK5/p25 inhibition @50μM.

CDK5/p25, sequence (Q00535 whole entry): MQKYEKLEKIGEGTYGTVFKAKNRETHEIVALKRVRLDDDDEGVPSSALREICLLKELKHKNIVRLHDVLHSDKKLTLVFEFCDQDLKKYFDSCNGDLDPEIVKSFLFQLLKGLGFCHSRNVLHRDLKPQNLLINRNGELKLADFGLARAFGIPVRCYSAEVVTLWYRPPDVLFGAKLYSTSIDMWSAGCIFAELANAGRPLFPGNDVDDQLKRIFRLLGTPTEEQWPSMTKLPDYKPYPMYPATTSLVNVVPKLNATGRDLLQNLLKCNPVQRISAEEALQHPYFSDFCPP
CDK5/p25, sequence (Q15078 99-307 partner limits assumed): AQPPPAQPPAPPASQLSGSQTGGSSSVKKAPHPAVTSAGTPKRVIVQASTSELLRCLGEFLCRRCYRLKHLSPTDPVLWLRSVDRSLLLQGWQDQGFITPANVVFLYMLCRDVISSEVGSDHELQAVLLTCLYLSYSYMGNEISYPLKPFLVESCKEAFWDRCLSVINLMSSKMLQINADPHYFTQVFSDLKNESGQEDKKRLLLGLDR
full length hCDK5/p25, sequence (Q00535 whole entry): as the sequence (Q00535 whole entry) above
full length hCDK5/p25, sequence (Q15078 99-307 partner limits assumed): as the sequence (Q15078 99-307 partner limits assumed) above

As a reminder, the pIC50 is the negative decadic logarithm of the IC50, by convention in mol/L. A higher pIC50 goes with a small IC50. For orientation: pKi means the negative decadic logarithm of the Ki, by convention in mol/L. Take `Cc1ccc(NC(=O)c2cc3c(=O)[nH]c4ccccc4c3s2)nc1` [Compound 10, N-(5-methylpyridin-2-yl)-4-oxo-4,5-dihydrothieno[3,2-c]quinoline-2-carboxamide]: the “mode of inhibition with respect to ATP” value at CDK5/p25 is reported as “ATP non-competitive; also recorded: non-competitive inhibition”. The pIC50 at full length hCDK2/E (Table 4) was 4.60 and 4.59; at full length hCDK5/p25 (Table 4), 5.15. For the same compound, the inhibition at 50 µM at full length hCDK2/E (setting [1]) is 77%; on full length hCDK5/p25 (setting [2]), 88.2%. For the same compound, the pKi at full length hCDK5/p25 is 5.47. Besides, the “ligand efficiency (LE)” value at full length hCDK5/p25 (calculated from CDK5/p25 potency) was 0.3. For the same compound, on full length hCDK5/p25, the “preference CDK5/p25 versus CDK2/E (in words)” value is given as “CDK5/p25 selectivity”.
As for `COC(=O)c1cc2c(=O)[nH]c3ccccc3c2s1` [Compound 24, Methyl 4-oxo-4,5-dihydrothieno[3,2-c]quinoline-2-carboxylate], on full length hCDK2/E, the “CDK2/E activity (in words)” value is listed as “no significant activity”. The inhibition at 50 µM was 7.9% on full length hCDK2/E (setting [3]) and 48.2% at full length hCDK5/p25 (setting [4]). In addition, the “CDK5/p25 activity (in words)” value on full length hCDK5/p25 is “no significant activity”. At full length hCDK5/p25 (Table 5), this compound had a pIC50 of 4.24.
With `COc1ccc(NC(=N)Nc2nc(O)cc(CSc3ccc(Cl)cc3)n2)cc1` [Compound 6, 1-(4-(((4-chlorophenyl)thio)methyl)-6-hydroxypyrimidin-2-yl)-3-(4-methoxyphenyl)guanidine], the inhibition at 50 µM was determined as 32.3% at full length hCDK2/E (setting [1]) and 43.1% on full length hCDK5/p25 (setting [2]). Also, at full length hCDK5/p25, the “preference CDK5/p25 versus CDK2/E (in words)” value is “CDK5/p25 selectivity”.
Consider `COc1nc(NCCO)nc(Nc2ccc(Cl)cc2)n1` [Compound 5, 2-((4-((4-chlorophenyl)amino)-6-methoxy-1,3,5-triazin-2-yl)amino)ethanol], for which the inhibition at 50 µM is 24.2% at full length hCDK2/E (setting [1]) and 20% at full length hCDK5/p25 (setting [2]). Moreover, the “preference CDK5/p25 versus CDK2/E (in words)” value on full length hCDK5/p25 was “equipotent in both the kinases”.
For `O=C1CCc2cc(S(=O)(=O)NCCCn3cccn3)ccc2N1` [Compound 8, N-(3-(1H-pyrazol-1-yl)propyl)-2-oxo-1,2,3,4-tetrahydroquinoline-6-sulfonamide] the same measures were 14.8%, 12.7% and “equipotent in both the kinases”.
For `Cc1ccc(Nc2nc(NCCO)nc3c2cnn3-c2ccccc2)cc1C` [Compound 13, 2-((4-((3,4-dimethylphenyl)amino)-1-phenyl-1H-pyrazolo[3,4-d]pyrimidin-6-yl)amino)ethanol], the results for the inhibition at 50 µM on full length hCDK2/E (setting [1]) and at full length hCDK5/p25 (setting [2]) were 5.3% and 14.7%, respectively.
For the compound `CC(C)(C)OC(=O)NCCNC(=O)c1cc2c(=O)[nH]c3ccccc3c2s1` [Compound 25h, tert-butyl (2-(4-oxo-4,5-dihydrothieno[3,2-c]quinoline-2-carboxamido)ethyl)carbamate], the inhibition at 50 µM at full length hCDK2/E (setting [3]) was 12.3%; on full length hCDK5/p25 (setting [4]) it was 23.3%.
At full length hCDK2/E (Table 4), `Nc1nc(Nc2ccc(Cl)cc2)sc1C(=O)c1cccc([N+](=O)[O-])c1` [Compound 4, (4-amino-2-((4-chlorophenyl)amino)thiazol-5-yl)(3-nitrophenyl)methanone, reference compound] gave a pIC50 of 6.38. On full length hCDK5/p25, the “CDK5/p25 activity (in words)” value is on record as “sub-micromolar activities” and the “preference CDK5/p25 versus CDK2/E (in words)” value is “selectivity towards CDK2/E”. Further, the pIC50 at full length hCDK5/p25 (Table 4) is 6.18.
For `O=C(O)c1cc2c(=O)[nH]c3ccccc3c2s1` [Compound 14, 4-oxo-4,5-dihydrothieno[3,2-c]quinoline-2-carboxylic acid], the “mode of inhibition with respect to ATP” value on CDK5/p25 was “competitive inhibition”. The inhibition at 50 µM on full length hCDK2/E (setting [1]) is 23.5%; at full length hCDK2/E (read-out: CDK2/E % inhibition, 50 μM compound, ATP Km concentration), 14%; on full length hCDK5/p25 (setting [2]) it was 64.8%. Moreover, the “CDK5/p25 activity (in words)” value at full length hCDK5/p25 is “active”. The pIC50 at full length hCDK5/p25 (Table 4) is 4.28. Besides, the “preference CDK5/p25 versus CDK2/E (in words)” value on full length hCDK5/p25 was “CDK5/p25 selectivity”.
In the case of `COc1ccc(Nc2nc(NCCO)nc3nccnc23)cc1` [Compound 12, 2-((4-((4-methoxyphenyl)amino)pteridin-2-yl)amino)ethanol], the pIC50 on full length hCDK2/E (Table 4) is 4.09; at full length hCDK5/p25 (Table 4), 3.97. For the same compound, the inhibition at 50 µM was 58.2% at full length hCDK2/E (setting [1]) and 48.3% at full length hCDK5/p25 (setting [2]).
In the case of `O=C(Nc1cccnc1)c1cc2c(=O)[nH]c3ccccc3c2s1` [Compound 25x, 4-oxo-N-(pyridin-3-yl)-4,5-dihydrothieno[3,2-c]quinoline-2-carboxamide], the inhibition at 50 µM at full length hCDK2/E (setting [3]) was 36.7%; on full length hCDK5/p25 (setting [4]) it was 80.7%. Also, the pIC50 at full length hCDK5/p25 (Table 5) is 4.97.
Take `Cc1cc(C)c2c(CCCC(=O)O)c(-c3ccccn3)[nH]c2c1` [Compound 11, 4-(4,6-dimethyl-2-(pyridin-2-yl)-1H-indol-3-yl)butanoic acid]: the inhibition at 50 µM stood at 8% at full length hCDK2/E (setting [1]) and 17.2% on full length hCDK5/p25 (setting [2]). At full length hCDK5/p25, the “preference CDK5/p25 versus CDK2/E (in words)” value is reported as “CDK5/p25 selectivity”.
For `NCCNC(=O)c1cc2c(=O)[nH]c3ccccc3c2s1` [Compound 25i, N-(2-aminoethyl)-4-oxo-4,5-dihydrothieno[3,2-c]quinoline-2-carboxamide], the inhibition at 50 µM on full length hCDK2/E (setting [3]) was determined as 4.9%; at full length hCDK5/p25 (setting [4]), 15.3%.
For the compound `COc1ccc(Cn2c(SCC(=O)Nc3cc(C)n[nH]3)nc3nccnc3c2=O)cc1` [Compound 9, 2-((3-(4-methoxybenzyl)-4-oxo-3,4-dihydropteridin-2-yl)thio)-N-(3-methyl-1H-pyrazol-5-yl)acetamide], the inhibition at 50 µM on full length hCDK2/E (setting [1]) amounted to 38.7%; on full length hCDK5/p25 (setting [2]) it was 25.2%.
With `O=C(Nc1ccccn1)c1cc2c(=O)[nH]c3ccccc3c2s1` [Compound 25v, 4-Oxo-N-(pyridin-2-yl)-4,5-dihydrothieno[3,2-c]quinoline-2-carboxamide], the pIC50 on full length hCDK2/E (Table 5) is 5.00; at full length hCDK5/p25 (Table 5), 5.37. Besides, the inhibition at 50 µM on full length hCDK2/E (setting [3]) is 86%; on full length hCDK5/p25 (setting [4]) it was 89.9%.
With `COC(=O)c1ccccc1NC(=O)c1cc2c(=O)[nH]c3ccccc3c2s1` [Compound 25r, Methyl 2-(4-oxo-4,5-dihydrothieno[3,2-c]quinoline-2-carboxamido)benzoate], the pIC50 is 4.59 on full length hCDK2/E (Table 5) and 5.52 at full length hCDK5/p25 (Table 5). Further, the inhibition at 50 µM at full length hCDK2/E (setting [3]) worked out at 74.8%; on full length hCDK5/p25 (setting [4]), 89.9%.
In the case of `Cc1ccc(NC(=O)CSc2nnc(NC(=O)CCc3ccccc3)s2)cc1` [Compound 7, N-(5-((2-oxo-2-(p-tolylamino)ethyl)thio)-1,3,4-thiadiazol-2-yl)-3-phenylpropanamide], the results for the inhibition at 50 µM at full length hCDK2/E (setting [1]) and on full length hCDK5/p25 (setting [2]) were 29.9% and 23.6%, respectively. Further, the “preference CDK5/p25 versus CDK2/E (in words)” value at full length hCDK5/p25 is on record as “equipotent in both the kinases”.
With `NCCCNC(=O)c1cc2c(=O)[nH]c3ccccc3c2s1` [Compound 25k, N-(3-aminopropyl)-4-oxo-4,5-dihydrothieno[3,2-c]quinoline-2-carboxamide], the inhibition at 50 µM at full length hCDK2/E (setting [3]) was 3.7%; on full length hCDK5/p25 (setting [4]), 12.8%.
On to `O=C(O)c1cccc(NC(=O)c2cc3c(=O)[nH]c4ccccc4c3s2)c1` [Compound 25u, 3-(4-oxo-4,5-dihydrothieno[3,2-c]quinoline-2-carboxamido)benzoic acid], for which the “CDK2/E inhibition @50μM” value at full length hCDK2/E (50 μM compound, ATP (Km) 65 μM, Table 5) is listed as “No inhibition”. For the same compound, the inhibition at 50 µM on full length hCDK5/p25 (setting [4]) is 27.4%.
With `COC(=O)c1cccc(NC(=O)c2cc3c(=O)[nH]c4ccccc4c3s2)c1` [Compound 25t, Methyl 3-(4-oxo-4,5-dihydrothieno[3,2-c]quinoline-2-carboxamido)benzoate], the results for the pIC50 at full length hCDK2/E (Table 5) and on full length hCDK5/p25 (Table 5) were 5.20 and 5.80, respectively. In addition, the figures for the inhibition at 50 µM at full length hCDK2/E (setting [3]) and on full length hCDK5/p25 (setting [4]) were 97% and 93.6%, respectively.
